Read-outs that look alike come from different tables or passages of the source.
Experiments:
[1] = pKa determination from fluorescence emission spectra of SNAFL free acids; format: physicochemical; conditions: 10 μM free acid, 50 mM phosphate buffers
From the text: The pH at which two molecular species (tautomers) are equally represented is defined as the pKa. There are many variables that can affect pKa and methods for measurement are difficult since the structures have overlapping absorbance. Therefore direct comparisons from the literature can vary slightly. The calculations contained herein are based on the assumption that, at pH 10, only the trianionic naphtholate structure is present. The intensity of fluorescence at the emission maxima is divided by 2, and pH of the intersecting pH curve is calculated by interpolation between the nearest 2 curves.

[2] = Photobleaching degradation under fluorescent light; format: physicochemical
Experimental: A photobleaching degradation curve for EBIO-3 and BCSI-3 was constructed utilizing fluorescent light exposure and measuring the absorption at 530 nm to quantify functional dye. Identical concentrations of both dyes, 7.9 μM, were exposed to continuous fluorescent light (34 W Philips Hg bulb) from a distance of 16 inches for 3 days. At 73.5 hours the two dyes had degraded 64% and the degradation is within 5.6% of each other.

[3] = Absorbance and fluorescence of fluorophore/HSA conjugates in solution; format: physicochemical; conditions: pH 7.4; free acid 10 micromolar, conjugates 1 micromolar
From the text: A 10 micromolar solution of SNAFL-1 acid (obtained from Molecular Probes) at pH 7 was used as a standard to more accurately determine the average loading of SNAFL-1 per each HSA conjugate preparation.
Excitation conditions are reported for each fluorescence spectrum (3000 msec irradiation at the indicated wavelength).
The Ocean Optics halogen light source was equipped with a 532 nm interference filter (Edmund Optics, Barrington, N.J.) and this allowed the fluorescent isosbestic point at 572 nm for pH 6-7 to be detected.

[4] = Absorbance and emission spectra versus pH of SNAFL analogs in solution
[5] = cited from earlier work
[6] = Lee et al. (1989) Cytometry 10, 151-164

pKa [1] | degraded (reduction in absorbance at 530 nm) ([2]; 73.5 hours continuous fluorescent light, 7.9 μM, pH 7.4 PBS) | absorption at 530 nm of control set ([2]; protected from light) | absorbance maximum [3] | pKa (physchem) | Absorbance λmax (base) ([4]; 10 μM, pH 10) | Emission λmax (base) ([4]; pH 10, excitation at absorbance λmax (base)) | Emission λiso ([4]; wavelength where emission spectra crossed, excitation at absorbance λmax (base)) | Compound | pKa [5, 6] | pKa ([5]; published values, free or immobilized dye)
6.6 | 64% | unchanged | 534 nm | 6.61 | 534 nm | 610 nm | 560 nm | O=C(O)CCc1cc2c(-c3ccccc3C(=O)O)c3ccc4cc(O)c(Cl)cc4c3oc-2cc1=O [EBIO-3] | – | –
– | – | – | – | – | – | – | – | O=S1(=O)OC2(c3ccccc31)c1ccc3cc(O)ccc3c1Oc1c2ccc2cc(O)ccc12 [VITABLUE] | 7.56 | –
– | – | – | – | – | – | – | – | Carboxynaphthofluorescein [CNF] | 7.99 | 7.62
